Test results published in US12377175B2, “Trifunctional constructs with tunable pharmacokinetics useful in imaging and anti-tumor therapies” (Cornell University, priority 2016, dated 2025).
Each block holds one compound with its values, some of them ahead of it.

Tests used:
[1] = test system: LNCaP xenograft tumor-bearing mice; assay: PET/CT imaging of 66Ga-RPS ligands in LNCaP xenograft mice; assay type: in vivo, mouse; settings: 66Ga PET/CT; for maximum uptake in the tumor (image-derived): over 1, 3, 6 and 24 h post injection
Procedure: (§1) Inoculation of mice with xenografts: All animal studies were approved by the Institutional Animal Care and Use Committee of Weill Cornell Medicine and were undertaken in accordance with the guidelines set forth by the USPHS Policy on Humane Care and Use of Laboratory Animals. Animals were housed under standard conditions in approved facilities with 12 h light/dark cycles. Food and water was provided ad libitum throughout the course of the studies. Hairless male nu/nu mice were purchased from the Jackson Laboratory. For inoculation in mice, LNCaP cells were suspended at 4×10^7 cells/mL in a 1:1 mixture of PBS:Matrigel (BD Biosciences). Each mouse was injected in the left flank with 0.25 mL of the cell suspension. The mice were imaged when the tumors reached approximately 200-400 mm^3, while biodistributions were conducted when tumors were in the range 100-400 mm^3.
Imaging of ^66Ga-RPS ligands in LNCaP xenograft mice: LNCaP xenograft tumor-bearing mice (2-3 per compound) injected intravenously with a bolus injection of 0.56-5.4 MBq (15-145 μCi) of the ^66Ga-labeled ligand. The specific activity of the tracers was in the range 14.8-47 MBq/μmol (0.4-1.27 mCi/μmol). The mice were imaged using PET/CT (Inveon™; Siemens Medical Solutions, Inc.) at 1, 3, 6 and 24 h post-injection following inhalation anesthetization with isoflurane. Total acquisition time was 30 min for the 1 h, 3 h and 6 h images, and 60 min for 24 h time point. A CT scan was obtained immediately before the acquisition for both anatomical co-registration and attenuation correction. Images were reconstructed using the Inveon™ software supplied by the vendor. Image-derived tumor and kidney uptake was estimated by comparison to a 10% injected dose […] standard introduced into the imaging field of view. The standard was prepared by dilution of 10% of the injected activity to 1 mL with saline. Volumes of interest (VOIs) were drawn with the aid of the CT and confirmed by PET. The contents of the VOIs were integrated and the calculated counts were converted to […] by direct comparison to the aforementioned standard following correction for activity injected.

[2] = test system: LNCaP xenograft tumor-bearing mice; assay: Biodistribution studies of 177Lu-labeled ligands in LNCaP xenograft mice; assay type: in vivo, mouse
Procedure: as §1
Biodistribution studies of 177Lu-labeled ligands in LNCaP xenograft mice: LNCaP xenograft tumor-bearing mice (5 per time point per compound) were injected intravenously with a bolus injection of 348-851 kBq (9.4-23 μCi) and 37-50 ng ([…]) of each ligand. The mice were sacrificed at 4, 24 and 96 h post injection. A blood sample was removed, and a full biodistribution study was conducted on the following organs (with contents): heart, lungs, liver, small intestine, large intestine, stomach, spleen, pancreas, kidneys, muscle, bone and tumor. Tissues were weighed and counted on a 2470 Wizard^2 Automatic Gamma Counter (Perkin Elmer). Counts were corrected for decay and for activity injected, and tissue uptake was expressed as percent injected dose per gram (% ID/g). Standard error measurement was calculated for each data point.

[3] = test system: LNCaP xenograft tumor-bearing mice; assay: Dosimetry (dose integrals from time-activity curves of 177Lu-labeled ligands); assay type: in vivo, mouse; settings: over 96 h
Procedure: Dosimetry: The dosimetry was calculated assuming a linear interpolation between the three time points. The average injected dose per organ was calculated by using the average of the activity and organ weights of the mice at that time point. Intermediate time points at every 4 hours were generated using the linear approximation and all time points were corrected for decay during the time interval between points. These curves were integrated using a trapezoidal approximation and the sum used to determine the residence time.

[4] = Biodistribution / in vivo stability of [225Ac(macropa)]+ compared with 225Ac(NO3)3 and [225Ac(DOTA)]- in C57BL/6 mice; settings: for accumulation of 225Ac in organs / blood clearance and excretion: tail vein, 15 min, 1 h, 5 h
Procedure: C57BL/6 mice were injected via tail vein with 10-50 kBq of each radiometal complex and were sacrificed after 15 min, 1 h, or 5 h.

LNCaP xenograft tumors = assay: Therapy study in LNCaP xenograft mice; assay type: in vivo, mouse; settings: for tumors not detectable (<0.5 mm^3): 75 d post injection
Procedure: as §1, with “xenografts.” for “xenografts:”, “Male BALB/c athymic” for “Hairless male”, “Biodistributions” for “The mice were imaged when the tumors reached approximately 200-400 mm^3, while biodistributions”, “200-800 mm^3, while therapy studies were initiated when tumors were in the range 50-900” for “100-400”
Therapy study in LNCaP xenograft mice. LNCaP xenograft tumor-bearing mice were randomly assigned to 5 groups (7 mice per group). […] The fourth group was injected with the same volume of vehicle. The fifth group was injected with 133 kBq ^225Ac-DOTA-Lys-IPBA. Tumor dimensions were measured and recorded three times weekly with digital calipers, and tumor volumes were calculated using the modified ellipsoid equation, V=0.5*length*width*width. […] Body weight was measured with a digital balance twice weekly, and mice were monitored for signs of distress. The mice were photographed weekly to visually confirm changes in tumor volume.

SMILES: O=C([O-])CN1CCN(CC(=O)[O-])CCN(CC(=O)O)C(Cc2ccc(NC(=S)NCCCC[C@H](NC(=O)CCOCCOCCOCCn3cc(-c4cccc(NC(=O)NCCCC[C@H](NC(=O)N[C@@H](CCC(=O)O)C(=O)O)C(=O)O)c4)nn3)C(=O)N[C@@H](CCCCNC(=O)Cc3ccc(I)cc3)C(=O)O)cc2)CN(CC(=O)[O-])CC1.[66Ga+3] (stereo partly shown) [66Ga-RPS-063]
time of maximum uptake in the tumor [1]: 6 h
tumor uptake (image-derived) ([1]; 24 h post injection): 7.9±3.0 % ID/cm^3
maximum uptake in the tumor (image-derived) [1]: 9.5±2.4 % ID/cm^3

SMILES: O=C([O-])CN1CCN(CC(=O)[O-])CCN(CC(=O)O)C(Cc2ccc(NC(=S)NCCCC[C@H](NC(=O)CCOCCOCCOCCOCCOCCOCCOCCOCCn3cc(-c4cccc(NC(=O)NCCCC[C@H](NC(=O)N[C@@H](CCC(=O)O)C(=O)O)C(=O)O)c4)nn3)C(=O)N[C@@H](CCCCNC(=O)Cc3ccc(I)cc3)C(=O)O)cc2)CN(CC(=O)[O-])CC1.[66Ga+3] (stereo partly shown) [66Ga-RPS-066]
time of maximum uptake in the tumor [1]: 3 h
kidney uptake (image-derived) ([1]; 24 h post injection): 0.2±0.1 % ID/cm^3
tumor uptake (image-derived) ([1]; 24 h post injection): 5.5±0.4 % ID/cm^3
maximum uptake in the tumor (image-derived) [1]: 7.8±0.7 % ID/cm^3

time of maximum uptake in the tumor [1]: 3 h
tumor uptake (image-derived) ([1]; 24 h post injection): 8.3±2.8 % ID/cm^3
maximum uptake in the tumor (image-derived) [1]: 9.7±2.0 % ID/cm^3
SMILES: O=C(O)CCC(NC(=O)NC(CCCCNC(=O)Nc1cccc(-c2cnnn2CC(=O)NC(CCCCNC(=S)Nc2ccc(CC3CN(CC(=O)O)CCN(CC(=O)O)CCN(CC(=O)O)CCN3CC(=O)O)cc2)C(=O)NC(CCCCNC(=O)Cc2ccc(I)cc2)C(=O)O)c1)C(=O)O)C(=O)O (stereo not shown) [66Ga-RPS-068, metal not drawn]

SMILES: O=C([O-])CN1CCN(CC(=O)[O-])CCN(CC(=O)O)C(Cc2ccc(NC(=S)NCCCC[C@H](NC(=O)CCOCCOCCOCCOCCOCCOCCn3cc(-c4cccc(NC(=O)NCCCC[C@H](NC(=O)N[C@@H](CCC(=O)O)C(=O)O)C(=O)O)c4)nn3)C(=O)N[C@@H](CCCCNC(=O)Cc3ccc(I)cc3)C(=O)O)cc2)CN(CC(=O)[O-])CC1.[66Ga+3] (stereo partly shown) [66Ga-RPS-069]
tumor uptake (image-derived) ([1]; 24 h post injection): 7.0±3.9 % ID/cm^3

SMILES: O=C([O-])CN1CCN(CC(=O)[O-])CCN(CC(=O)O)C(Cc2ccc(NC(=S)NCCCC[C@H](NC(=O)CCOCCOCCOCCOCCn3cc(-c4cccc(NC(=O)NCCCC[C@H](NC(=O)N[C@@H](CCC(=O)O)C(=O)O)C(=O)O)c4)nn3)C(=O)N[C@@H](CCCCNC(=O)Cc3ccc(I)cc3)C(=O)O)cc2)CN(CC(=O)[O-])CC1.[177Lu+3] (stereo partly shown) [177Lu-RPS-061]
blood activity (comparison within the series) ([2]; 4 h p.i.): highest blood activity
tumor-to-kidney ratio ([2]; 96 h p.i.): 3.64±0.29
dose integral in the tumor relative to 177Lu-PSMA-617 [3]: at least two times higher

SMILES: O=C([O-])CN1CCN(CC(=O)[O-])CCN(CC(=O)O)C(Cc2ccc(NC(=S)NCCCC[C@H](NC(=O)CCOCCOCCOCCn3cc(-c4cccc(NC(=O)NCCCC[C@H](NC(=O)N[C@@H](CCC(=O)O)C(=O)O)C(=O)O)c4)nn3)C(=O)N[C@@H](CCCCNC(=O)Cc3ccc(I)cc3)C(=O)O)cc2)CN(CC(=O)[O-])CC1.[177Lu+3] (stereo partly shown) [177Lu-RPS-063]
blood activity (comparison within the series) ([2]; 4 h p.i.): highest blood activity
tumor uptake ([2]; 4 h p.i.): 30.0±3.1 % ID/g
kidney uptake ([2]; 24 h p.i.): 51.8±8.6 % ID/g
tumor uptake ([2]; 96 h p.i.): 12.9±0.5 % ID/g
tumor-to-kidney ratio ([2]; 96 h p.i.): 2.75±0.17
dose integral in the tumor relative to 177Lu-PSMA-617 [3]: nearly four times higher

SMILES: O=C([O-])CN1CCN(CC(=O)[O-])CCN(CC(=O)O)C(Cc2ccc(NC(=S)NCCCC[C@H](NC(=O)CCOCCOCCOCCOCCOCCOCCOCCOCCn3cc(-c4cccc(NC(=O)NCCCC[C@H](NC(=O)N[C@@H](CCC(=O)O)C(=O)O)C(=O)O)c4)nn3)C(=O)N[C@@H](CCCCNC(=O)Cc3ccc(I)cc3)C(=O)O)cc2)CN(CC(=O)[O-])CC1.[177Lu+3] (stereo partly shown) [177Lu-RPS-066]
blood activity (comparison within the series) ([2]; 4 h p.i.): lower blood retention
tumor uptake ([2]; 4 h p.i.): 18.7±1.1 % ID/g
kidney uptake ([2]; 24 h p.i.): 6.2±0.8 % ID/g
tumor-to-kidney ratio ([2]; 24 h p.i.): 1.92±0.30
tumor uptake ([2]; 96 h p.i.): 5.9±0.7 % ID/g
dose integral in the tumor relative to 177Lu-PSMA-617 [3]: at least two times higher

SMILES: O=C([O-])CN1CCN(CC(=O)[O-])CCN(CC(=O)O)C(Cc2ccc(NC(=S)NCCCC[C@H](NC(=O)CCOCCOCCOCCOCCOCCOCCn3cc(-c4cccc(NC(=O)NCCCC[C@H](NC(=O)N[C@@H](CCC(=O)O)C(=O)O)C(=O)O)c4)nn3)C(=O)N[C@@H](CCCCNC(=O)Cc3ccc(I)cc3)C(=O)O)cc2)CN(CC(=O)[O-])CC1.[177Lu+3] (stereo partly shown) [177Lu-RPS-069]
blood activity (comparison within the series) ([2]; 4 h p.i.): lower blood retention
tumor uptake ([2]; 4 h p.i.): 17.0±2.1 % ID/g
tumor uptake ([2]; 96 h p.i.): 9.8±0.8 % ID/g
dose integral in the tumor relative to 177Lu-PSMA-617 [3]: at least two times higher

SMILES: O=[N+]([O-])[O-].O=[N+]([O-])[O-].O=[N+]([O-])[O-].[225Ac] [225Ac(NO3)3, reference compound]
accumulation of 225Ac in organs [4]: large accumulation in the liver and spleen
blood clearance and excretion [4]: slow blood clearance and excretion

SMILES: O=C([O-])CN1CCN(CC(=O)[O-])CCN(CC(=O)O)C(Cc2ccc(NC(=S)N[C@@H](CCCCNC(=O)CCCc3ccc(I)cc3)C(=O)O)cc2)CN(CC(=O)[O-])CC1.[225Ac+3] (stereo partly shown) [225Ac-DOTA-Lys-IPBA]
mice surviving the first 21 d (LNCaP xenograft tumors; 133 kBq positive control group): 100%

SMILES: O=C(O)CC[C@H](NC(=O)N[C@@H](CCCCNC(=O)Nc1cccc(-c2cn(CCOCCOCCOCCC(=O)N[C@@H](CCCCNC(=S)Nc3cc(CN4CCOCCOCCN(Cc5cccc(C(=O)[O-])n5)CCOCCOCC4)nc(C(=O)[O-])c3)C(=O)NCCOCCOCCOCCOCCOCCOCCOCCOCCC(=O)N[C@@H](CCCCNC(=O)CCCc3ccc(I)cc3)C(=O)O)nn2)c1)C(=O)O)C(=O)O.[225Ac+3] [225Ac-RPS-074]
mice surviving the first 21 d (LNCaP xenograft tumors; 37 kBq group): 100%
tumor growth rate (LNCaP xenograft tumors; 37 kBq treatment group): appeared to grow at a similar rate to the untreated tumors
tumors not detectable (<0.5 mm^3) (LNCaP xenograft tumors; 74 kBq group, 1/7): 14%
tumor volumes that began to increase again (LNCaP xenograft tumors; 74 kBq group, after 42 d, 6/7): 86%
time over which tumor volume decreased (LNCaP xenograft tumors; 74 kBq group, post injection): ≤ 42 days
mice with tumor volume less than 1 mm^3 (LNCaP xenograft tumors; 74 kBq group, up to 42 days p.i., 5/7): 71%
antitumor effect (LNCaP xenograft tumors; 138 kBq and 74 kBq): significant antitumor effect
survival of the 75 d study (LNCaP xenograft tumors; 138 kBq treatment group): Every mouse in the 138 kBq treatment group survived
tumors not detectable (<0.5 mm^3) (LNCaP xenograft tumors; 138 kBq treatment group, 6/7): 86%

SMILES: O=C([O-])CN1CCN(CC(=O)[O-])CCN(CC(=O)[O-])CCN(CC(=O)[O-])CC1.[225Ac+3] [[225Ac(DOTA)]-, reference compound]
blood clearance and excretion [4]: clear more rapidly through the urine

SMILES: O=C([O-])c1cccc(CN2CCOCCOCCN(Cc3cccc(C(=O)[O-])n3)CCOCCOCC2)n1.[225Ac+3] [[225Ac(macropa)]+]
in vivo stability of the complex [4]: highly stable in vivo
accumulation of 225Ac in organs [4]: did not accumulate in any organ
blood clearance and excretion [4]: rapidly cleared from mice
